{"source": "patent US20220288091A1", "about": "“Method for Improving Insulin Sensitivity” (priority 2019, published 2022)", "key": {"[1]": {"system": "overweight or obese subjects with prediabetes or mild type 2 diabetes", "assay": "Fasting plasma glucose, insulin and fasting surrogate indices (HOMA-IR, QUICKI, Adipo-IR) in placebo-controlled crossover trial", "assay_type": "in vivo, human", "conditions": "50 mg every 6 hours for 9 days, n=16", "description": "A randomized, placebo-controlled, double-blind crossover trial was conducted to evaluate the use of an anti-glucocorticoid as a means for ameliorating insulin resistance. Mifepristone, 50 mg, or a placebo, was administered every six hours for nine days to sixteen overweight or obese (BMI 25-37 kg/m^2) subjects (seven women). Participant ages ranged from 48 to 64 years. Ten had prediabetes and six had mild diabetes type II (HgbA1c less than 7%). Treatment of the glucose disorder with diet or a stable dose of metformin (used by two patients) was maintained for three (3) months before the study. The interventions were nine days of mifepristone or placebo treatment followed by a six (6) to eight (8) week wash out and cross over to the other arm. At baseline and at the end of each treatment period, parameters of insulin sensitivity were assessed by a frequently sampled intravenous glucose tolerance test (FSIVGTT) and an oral glucose tolerance test (OGTT). A whole body glucose disposal index of insulin sensitivity (SI) was derived using a minimal model analysis. Adipose tissue-SI, which reflects insulin-induced free fatty acid suppression, was estimated by the log-linear slope of free fatty acid levels and the AUC of insulin during the FSIVGTT. Matsuda index, oral glucose insulin sensitivity index (OGIS, ml/min/m^2), and hepatic insulin resistance index (HIRI, mg/dl×microU/ml×10^5) were derived from OGTT. Adipo-IR, a surrogate measure of adipocyte insulin resistance, was calculated by multiplying fasting concentrations of free fatty acids and insulin (mmol×pmol/L). Comparison of various post-treatment parameters was performed using crossover ANOVA. This analysis takes into account specific treatment arm, treatment order, and treatment effects. Thus, carryover effects were explicitly tested for in the crossover study.\nThe inventors conducted a random, triple-blinded, placebo-controlled, cross-over study using mifepristone (50 mg every 6 hours, 200 mg total daily dose) in overweight/obese individuals (n=16, 44% female) with pre-DM (pre-diabetes mellitus) or mild type 2 diabetes mellitus (glycated hemoglobin A1C […]). Mifepristone or placebo was administered for 9 days followed by a washout period of 6 to 8 weeks, and then crossover to the other treatment arm. At baseline and after each treatment period, the oral glucose tolerance test and frequently sampled intravenous glucose tolerance test were performed. Insulin sensitivity (SI) was measured using Matsuda index and oral glucose insulin sensitivity index (OGISI). Hepatic SI was assessed using hepatic insulin resistance index (HIRI), and adipose tissue SI was assessed using adipo-IR adipose tissue insulin sensitivity index (ATISI).\nThe study in this example used a prospective, randomized, double-blind placebo-controlled, cross-over design in which eligible subjects were randomized in blocks of six to the initial arm of the study: either placebo or mifepristone (50 mg tablets every 6 hours) for 9 days. This was followed by a 6-8 week washout period. Subjects were then crossed over to the other treatment arm for an additional 9 days. The study was conducted at the National Institutes of Health (NIH) Clinical Center, Bethesda, Md., U.S.\nTo reduce potential variability associated with estrogen in premenopausal women, testing was performed in the early follicular phase (days 1-7 of menstrual cycle). Baseline height and weight were measured after an overnight fast. […]"}, "[2]": {"system": "overweight or obese subjects with prediabetes or mild type 2 diabetes", "assay": "Frequently sampled intravenous glucose tolerance test (FSIVGTT)", "assay_type": "in vivo, human", "conditions": "Ln(FFA) slope / AUC insulin 0-90 min of FSIVGTT; 50 mg every 6 hours for 9 days; mean±SD, n=16", "description": "A randomized, placebo-controlled, double-blind crossover trial was conducted to evaluate the use of an anti-glucocorticoid as a means for ameliorating insulin resistance. Mifepristone, 50 mg, or a placebo, was administered every six hours for nine days to sixteen overweight or obese (BMI 25-37 kg/m^2) subjects (seven women). Participant ages ranged from 48 to 64 years. Ten had prediabetes and six had mild diabetes type II (HgbA1c less than 7%). Treatment of the glucose disorder with diet or a stable dose of metformin (used by two patients) was maintained for three (3) months before the study. The interventions were nine days of mifepristone or placebo treatment followed by a six (6) to eight (8) week wash out and cross over to the other arm. At baseline and at the end of each treatment period, parameters of insulin sensitivity were assessed by a frequently sampled intravenous glucose tolerance test (FSIVGTT) and an oral glucose tolerance test (OGTT). […] Adipo-IR, a surrogate measure of adipocyte insulin resistance, was calculated by multiplying fasting concentrations of free fatty acids and insulin (mmol×pmol/L). […]\nInsulin sensitivity index, SI, was determined from the minimal model using data from the insulin-modified FSIVGTT as previously described (version 6.02; MinMOD Millenium, Los Angeles, Calif.). […]"}}, "note": "Several values for one entry are separate records, joined by “and”; a condition that tells them apart may be missing. Identical values can stand only once.", "data": [{"smiles": "CC#C[C@]1(O)CC[C@H]2[C@@H]3CCC4=CC(=O)CCC4=C3[C@@H](c3ccc(N(C)C)cc3)C[C@@]21C", "note": "[Mifepristone, 11beta-[p-(dimethylamino)phenyl]-17alpha-(1-propynl)estra-4,9-dien-17beta-ol-3-one]", "values": [{"measurement": "Fasting Glucose", "setting": "[1]; post-treatment mean±SD", "result": "100.4 ± 15.3", "unit": "mg/dL"}, {"measurement": "Fasting Insulin", "setting": "[1]; post-treatment mean±SD", "result": "95.7 ± 76.1 pmol/L and 95.6 ± 76.1 pmol/L"}, {"measurement": "HOMA-IR", "setting": "[1]; post-treatment mean±SD", "result": "3.58 ± 3.27"}, {"measurement": "QUICKI", "setting": "[1]; post-treatment mean±SD", "result": "0.332 ± 0.034"}, {"measurement": "Adipose-tissue Insulin Resistance Index (Adipo-IR)", "setting": "[1]; fasting FFA × fasting insulin, mean±SD", "result": "50.0±46.0", "unit": "mmol×pmol/L"}, {"measurement": "Adipose-tissue Insulin Sensitivity Index (Adipose SI)", "setting": "[2]", "result": "61.7±32.9"}]}]}
